Consider eight molecules from patent publication EP0385712B1, “A peptide for use in the manufacture of a composition for prevention or treatment of a condition susceptible to treatment with a platelet aggregation inhibition agent” (ASAHI KASEI KOGYO KABUSHIKI KAISHA, priority 1989, dated 1994).

Positions of bridges follow the written chain, without caps; N, C: chain ends. Residues, ends and D or L forms follow the SMILES beside them.

The subject of this data set is rat, Wister strain. Briefly: Acute toxicity in rat, intravenous. Format: in vivo. The settings on record: body weight 80 - 90 g, 80 µg/kg intravenously in the tail, solution in 0.1 M aqueous sodium acetate containing 0.1 % bovine serum albumin. As for the experimental part:
A solution of each of the following compounds in 0.1 M aqueous sodium acetate containing 0.1 % bovine serum albumin is administered into a rat, Wister strain, body weight 80 - 90 g, 80 µg/kg, intraveneously in the tail.

As for desalanyl-deamino- [Glu¹⁴ ] -h -α-CGRP, the “Acute toxicity (deaths)” value was “No deaths were observed”.
As for “desalanyl-deamino- [Asn³, Asp¹⁴, Phe¹⁵] -h -α-CGRP”, the “Acute toxicity (deaths)” value was “No deaths were observed”.
Consider desalanyl-deamino-h-β-CGRP, for which the “Acute toxicity (deaths)” value is reported as “No deaths were observed”.
In the case of “desalanyl-deamino- [Asn³, Glu¹⁴, Phe¹⁵] -h -α-CGRP”, the “Acute toxicity (deaths)” value is “No deaths were observed”.
As for `CC(C)C[C@H](NC(=O)CNC(=O)[C@H](C)NC(=O)[C@H](CC(C)C)NC(=O)[C@H](CCCNC(=N)N)NC(=O)[C@H](Cc1cnc[nH]1)NC(=O)[C@@H](NC(=O)[C@@H](NC(=O)[C@@H]1CSSC[C@H](NC(=O)[C@H](C)N)C(=O)N[C@@H](CC(=O)O)C(=O)N[C@@H]([C@@H](C)O)C(=O)N[C@@H](C)C(=O)N[C@@H]([C@@H](C)O)C(=O)N1)C(C)C)[C@@H](C)O)C(=O)N[C@@H](CC(C)C)C(=O)N[C@@H](CO)C(=O)N[C@@H](CCCNC(=N)N)C(=O)N[C@@H](CO)C(=O)NCC(=O)NCC(=O)N[C@H](C(=O)N[C@H](C(=O)N[C@@H](CCCCN)C(=O)N[C@@H](CC(N)=O)C(=O)N[C@@H](CC(N)=O)C(=O)N[C@@H](Cc1ccccc1)C(=O)N[C@H](C(=O)N1CCC[C@H]1C(=O)N[C@H](C(=O)N[C@@H](CC(N)=O)C(=O)N[C@H](C(=O)NCC(=O)N[C@@H](CO)C(=O)N[C@@H](CCCCN)C(=O)N[C@@H](C)C(=O)N[C@@H](Cc1ccccc1)C(N)=O)C(C)C)[C@@H](C)O)C(C)C)C(C)C)C(C)C` [h - α - CGRP], the “Acute toxicity (deaths)” value is listed as “No deaths were observed”.
As for `CC(C)C[C@H](NC(=O)[C@H](CCCNC(=N)N)NC(=O)[C@H](Cc1c[nH]cn1)NC(=O)[C@@H](NC(=O)[C@@H](NC(=O)[C@@H]1CSSC[C@H](NC(=O)[C@H](C)N)C(=O)N[C@@H](CC(N)=O)C(=O)N[C@@H]([C@@H](C)O)C(=O)N[C@@H](C)C(=O)N[C@@H]([C@@H](C)O)C(=O)N1)C(C)C)[C@@H](C)O)C(=O)N[C@@H](C)C(=O)N[C@@H](CCC(=O)O)C(=O)N[C@@H](CC(C)C)C(=O)N[C@@H](CC(C)C)C(=O)N[C@@H](CO)C(=O)N[C@@H](CCCNC(=N)N)C(=O)N[C@@H](CO)C(=O)NCC(=O)NCC(=O)N[C@H](C(=O)NCC(=O)N[C@@H](CCCCN)C(=O)N[C@@H](CC(N)=O)C(=O)N[C@@H](CC(N)=O)C(=O)N[C@@H](Cc1ccccc1)C(=O)N[C@H](C(=O)N1CCC[C@H]1C(=O)N[C@H](C(=O)N[C@@H](CC(N)=O)C(=O)N[C@H](C(=O)NCC(=O)N[C@@H](CO)C(=O)N[C@@H](CCCCN)C(=O)N[C@@H](C)C(=O)N[C@@H](Cc1ccccc1)C(N)=O)C(C)C)[C@@H](C)O)C(C)C)C(C)C` [[Asn³, Glu¹⁴, Gly²³] -h -α-CGRP] (H-ACNTATCVTHRLAELLSRSGGVGKNNFVPTNVGSKAF-NH2; disulfide 2-7), the “Acute toxicity (deaths)” value is listed as “No deaths were observed”.
Next, desalanyl-deamino- [Asp¹⁴ ] -h -α-CGRP: “No deaths were observed”; desalanyl- [Asp^3, Asu^2,⁷)-c-CGRP: “No deaths were observed”.
